Reference: US20240269120A1, “Method for Treating an Autoimmune and Inflammatory Disease” (Cellestia Biotech AG, priority 2021, published 2024)

Columns and labels:
[1] = system: NSG mice injected with human PBMCs (GvHD); test: Humanized GvHD mouse model, ex vivo pre-treated PBMCs plus in vivo treatment; parameters: GvHD clinical score: Body weight loss (D59) / GvHD clinical score: Paleness (D59) / GvHD clinical score: Posture (D59) / GvHD clinical score: Skin integrity (day 45) / GvHD clinical score: Activity score / GvHD clinical score: Fur texture (day 45): scale not given here; settings: for GvHD clinical score: Body weight loss (D59): label = ex vivo PBMC treatment (7 hrs)/in vivo treatment (3 days), DMSO/Vehicle 2.0; for GvHD clinical score: Paleness (D59) / GvHD clinical score: Activity score / GvHD clinical score: Skin integrity (day 45) / GvHD clinical score: Posture (D59) / GvHD clinical score: Fur texture (day 45) / Cumulative GvHD score: label = ex vivo PBMC treatment/in vivo treatment; for GvHD clinical score: Paleness (D59): DMSO/Vehicle 0.9; for GvHD clinical score: Activity score: DMSO/Vehicle 1.0; for GvHD clinical score: Skin integrity (day 45): DMSO/Vehicle 1.25; for GvHD clinical score: Posture (D59): DMSO/Vehicle 1.3; for GvHD clinical score: Fur texture (day 45): DMSO/Vehicle 1.35; for Cumulative GvHD score: sum of individual scores, DMSO/Vehicle 7.8
Procedure: Humanized GvHD mouse model: 6-8 weeks old NSG mice were intraperitoneally injected with 10 million human peripheral blood mononuclear cells (PBMCs) as below:
A cumulative GvHD clinical score was calculated by addition of scores for individual parameters (e.g. cumulative score=BWL+posture+activity+fur texture+skin integrity+paleness).
Ex-vivo pre-treatment of PBMCs and in-vivo treatment of mice: Human PBMCs were ex-vivo treated with either DMSO or 6-(4-tert-butylphenoxy)pyridin-3-amine and then intraperitoneally injected into NSG mice. Mice were in vivo treated with different compounds as below: • i. DMSO ex vivo hPBMCs treatment (7 hrs), plus vehicle in vivo treatment • ii. DMSO ex vivo hPBMCs treatment (7 hrs), plus 6-(4-tert-butylphenoxy)pyridin-3-amine in vivo treatment for 3 days • iii. 6-(4-tert-butylphenoxy)pyridin-3-amine ex vivo hPBMCs treatment (7 hrs), plus 6-(4-tert-butylphenoxy)pyridin-3-amine in vivo treatment for 3 days • iv. DMSO ex vivo PBMCs treatment (7 hrs) plus Ruxolitinib in vivo treatment for 3 days • v. 6-(4-tert-butylphenoxy)pyridin-3-amine ex vivo hPBMCs treatment (7 hrs), plus Ruxolitinib in vivo treatment for 3 days
(§1) Following PBMC injections, mice were treated with vehicle or 6-(4-tert-butylphenoxy)pyridin-3-amine or Ruxolitinib starting at day 0. Mice were monitored from 60-85 days for symptoms of GvHD and scored according to a standard clinical scoring system for GvHD (Naserian et al., 2018) (see table 1) and a cumulative clinical score was obtained by addition of clinical score for individual parameters. A maximum score of 6 is measured when reaching endpoint. Cell proliferation assay: The effect of compounds on T cell proliferation was quantified using Cell trace violet (CTV). PBMCs/splenocytes were incubated with CTV for 20 minutes at 37° C. Cells were washed twice with RPMI complete medium. CTV labelled cells were stimulated with anti-CD3 and anti-CD28 antibodies and treated with control or compounds and cultured at 37° C. for 96 hours. The cell division index was measured by flow cytometry.

[2] = system: irradiated Balb/c mice transplanted with TCD-BM + splenocytes from C57Bl6 mice (GvHD); test: Allogeneic bone marrow transplant GvHD model; assay type: in vivo, mouse; settings: allo-bone marrow transplant, compared with vehicle
Procedure: Allogeneic Bone marrow transplant: Recipient Balb/c mice were irradiated twice 3.75Gy (T=0 and T=4 h) in an X-ray source irradiator before transplantation at T=8 h. Treatment with antibiotics (Nopil) and analgesic (Dafalgan) was supplemented to drinking water 4 days before injection. Irradiated recipient Balb/c mice were transplanted with 5 million T cell depleted bone marrow+1 million splenocytes. Allogeneic recipient animals were treated with vehicle or 6-(4-tert-butylphenoxy)pyridin-3-amine subcutaneously at 20 mg/kg for two days immediately after allo-BM transplant, given a 10 days treatment holiday to recover body weight loss due to whole body irradiation and then treatment continued at 20 mg/kg. […] Animals were monitored for symptoms of GvHD development (severe body weight loss, alopecia and diarrhea.
Graft vs host disease (GvHD) is an example of alloimmune disease that develops following allo-hematopoetic stem cell transplant (allo-HSCT) in humans. The activity of 6-(4-tert-butylphenoxy)pyridin-3-amine and a calcineurin inhibitor Cyclosprin A was investigated in a mouse model of GvHD following allo-bone marrow transplant. In this model, T cell depleted bone marrow cells (TCD-BM)+splenocytes from C57Bl6 mice were transplanted into irradiated Balb/c mice.

Treg cells = test: Treg expansion in activated human PBMC cultures (anti-CD3/anti-CD28, flow cytometry); assay type: cell-based; settings: anti-CD3 and anti-CD28, 96 hours, control 0%
Procedure: (§2) Human PBMCs and mouse splenocyte in vitro stimulation and treatment: Human peripheral blood mononuclear cells (PBMCs) and mouse splenocytes from donors were stimulated in vitro with anti-CD3 and anti-CD28 antibodies. The stimulated cells were simultaneously treated with compounds for 96 hours. The T cells were profiled for different cell surface and intracellular markers and proliferation by flow cytometry.
(§3) Flow cytometry analysis: Flow cytometry analysis was performed to quantify cell surface and intracellular markers expression and measure cell division index.
Viability staining: Cells were transferred into a 96 well conical bottom plate and washed with serum free PBS1×. Cells were incubated with Zombie NIR (Biolegend #423105)+FC block ([…]) for 20 minutes at 4° C. Cells were washed with staining medium (SM) (1×HBSS, 2.5 mM EDTA, 2% NBS
Cell surface marker staining: Cells were stained with antibodies against cell surface markers (CD3, CD4, CD8, CD25, Biolegend or ThermoFisher) for 20 minutes at 4° C. Cells were washed with SM before continuing with nuclear staining.
FOXP3 nuclear staining: Cells were fixed and permeabilized with Foxp3 Transcription Factor Staining Buffer Set (ThermoFisher #00-5523) for 20 minutes at room temperature. […] Results are finally analysed with the software FlowJo v.10.7.1.

activated CD4 T cells = test: Cell proliferation assay (Cell trace violet), activated CD4 T cells; assay type: cell-based; settings: control 0%
Procedure: as §1, §3

activated CD8 T cells = test: Cell proliferation assay (Cell trace violet), activated CD8 T cells; assay type: cell-based; settings: control 0%
Procedure: as §1, §3

IL-6 = test: ELISA of supernatant from activated human PBMC cultures: IL-6; assay type: cell-based; settings: control 0%
Procedure: as §2
(§4) ELISA assay: Supernatant from activated human PBMC cultures described above was separated from cells at the end of culture time. Key cytokines (IL-6, IFN-γ, IL-17) were quantified using sandwich ELISA reagents set (Diaclone) following manufacturer's instruction manual.

IL-17 = test: ELISA of supernatant from activated human PBMC cultures: IL-17; assay type: cell-based; settings: control 0%
Procedure: as §2, §4

IFNG = test: ELISA of supernatant from activated human PBMC cultures: IFNG; assay type: cell-based; settings: control 0%
Procedure: as §2, §4

## CC(C)(C)c1ccc(Oc2ccc(N)cn2)cc1 [6-(4-tert-butylphenoxy)pyridin-3-amine/6-(4-tert-butylphenox]
[1]
  GvHD clinical score: Body weight loss (D59): 0.9
  GvHD clinical score: Paleness (D59): 1.2
  GvHD clinical score: Activity score: 0.5
  GvHD clinical score: Skin integrity (day 45): 0.7
  GvHD clinical score: Posture (D59): 0.7
  GvHD clinical score: Fur texture (day 45): 1.2
  Cumulative GvHD score: 5.2

## N#CC[C@H](C1CCCC1)n1cc(-c2ncnc3[nH]ccc23)cn1 [DMSO/Ruxolitinib, Ruxolitinib, reference compound]
[1]
  GvHD clinical score: Body weight loss (D59): 1.6
  GvHD clinical score: Paleness (D59): 0.9
  GvHD clinical score: Activity score: 0.9
  GvHD clinical score: Skin integrity (day 45): 1.2
  GvHD clinical score: Posture (D59): 1.2
  GvHD clinical score: Fur texture (day 45): 1.1
  Cumulative GvHD score: 6.9

## Cyclosporin A [reference compound]
[2]
  prevention of GvHD development (in words): did not perform better than vehicle treated animals

## Cc1nc(Oc2ccc(-c3ccc(F)cc3)cc2)ccc1N [6-((4′-fluoro-[1,1′-biphenyl]-4-yl)oxy)-2-methylpyridin-3-amine]
Treg cells
  expansion of Treg cells: 120%
Activated CD4 T cells
  Percentage inhibition of CD4 T cells (proliferation): 40%
Activated CD8 T cells
  Percentage inhibition of CD8 T cells (proliferation): 74%
IL-6
  Percentage downregulation of IL-6: 66%
IL-17
  Percentage downregulation of IL-17: 78%
IFNG
  Percentage downregulation of IFNG: 41%

## CNc1ccc(Oc2ccc(-c3cncs3)cc2)nc1 [N-methyl-6-(4-(thiazol-5-yl)phenoxy)pyridin-3-amine]
IL-6
  Percentage downregulation of IL-6: 80%
IL-17
  Percentage downregulation of IL-17: 85%
IFNG
  Percentage downregulation of IFNG: 38%

## CC(C)(C)c1ccc(Oc2ccc(N)cn2)cc1 [DMSO/6-(4-tert-butylphenoxy)pyridin-3-amine]
[1]
  GvHD clinical score: Body weight loss (D59): 1.35
  GvHD clinical score: Paleness (D59): 1.2
  GvHD clinical score: Activity score: 0.5
  GvHD clinical score: Skin integrity (day 45): 0.65
  GvHD clinical score: Posture (D59): 1.3
  GvHD clinical score: Fur texture (day 45): 0.95
  Cumulative GvHD score: 5.95
